Measurements from the supplement of paper PMC11208160.

Assay: recombinant barcode read abundance after kanamycin selection (control-corrected) (log10(CPM+1)); higher = more efficient recombination; sequences stand for … in AGTGCAGAGAAAATCGGCCAGTTTTCTCTGCCTGCAGTCCGCATGCCGT…ATTTATGCAGCGGACTGCCTTTCTCCCAAAGTGATAAACCGGACAGTATCATGGACCGGTTTTCCCGGTAATCCGTATTTGCAAGGTTGGTTTCACT; site = the 11-nt target
Method in brief: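 Recombination efficiency was calculated from barcode counts at recombinant junctions, normalized to counts per million, averaged and corrected by the control. Each value is given as log10(CPM+1). The constructs were Gibson-cloned oligos (promoter, target, barcode, J23119-driven first 104 bridge RNA bases) in a vector with the remaining 73 bp and a T7-inducible recombinase, co-electroporated into E. coli with a donor plasmid and plated in duplicate on chloramphenicol/ampicillin LB agar (control) or chloramphenicol/ampicillin/kanamycin with 0.1 mM IPTG.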

Point of comparison: “GGGCGTGAGTGGGTTCTAACCTGTTGCCTCT [GGGCGTGCTAG_LTGcore_AG_RTGcore_AG] (site GGGCGTGCTAG) (LTG core: AG, RTG core: AG)”, “recombinant barcode read abundance (log10)” value 0.523. Against it:
- GCGGGACGATGGGTTCTAACCTGTTGCCTTC [GCGGGACCTAG_LTGcore_GA_RTGcore_GA] (site GCGGGACCTAG) (LTG core: GA, RTG core: GA) — lower, 0.2
- GCGGGACGGTGGGTTCTAACCTGTTGCCTAG [GCGGGACCTAG_LTGcore_GG_RTGcore_CT] (site GCGGGACCTAG) (LTG core: GG, RTG core: CT) — lower, 0.14
- GCGGGACGTTGGGTTCTAACCTGTTGCCTAG [GCGGGACCTAG_LTGcore_GT_RTGcore_CT] (site GCGGGACCTAG) (LTG core: GT, RTG core: CT) — lower, 0.0984
- GGACACCACTGGGTTCTAACCTGTTGCCTAG [GGACACCCTAG_LTGcore_AC_RTGcore_CT] (site GGACACCCTAG) (LTG core: AC, RTG core: CT) — lower, 0.0688
- GGACACCCCTGGGTTCTAACCTGTTGCCTGG [GGACACCCTAG_LTGcore_CC_RTGcore_CC] (site GGACACCCTAG) (LTG core: CC, RTG core: CC) — lower, 0.128
- GGACACCCTTGGGTTCTAACCTGTTGCCTCA [GGACACCCTAG_LTGcore_CT_RTGcore_TG] (site GGACACCCTAG) (LTG core: CT, RTG core: TG) — higher, 0.858
- GGACACCGATGGGTTCTAACCTGTTGCCTTC [GGACACCCTAG_LTGcore_GA_RTGcore_GA] (site GGACACCCTAG) (LTG core: GA, RTG core: GA) — lower, 0.0178
- GGACACCGTTGGGTTCTAACCTGTTGCCTAG [GGACACCCTAG_LTGcore_GT_RTGcore_CT] (site GGACACCCTAG) (LTG core: GT, RTG core: CT) — lower, 0.32
- GGCTCCCAGTGGGTTCTAACCTGTTGCGGCT [GGCTCCCCTCC_LTGcore_AG_RTGcore_AG] (site GGCTCCCCTCC) (LTG core: AG, RTG core: AG) — lower, 0.206
- GGCTCCCCATGGGTTCTAACCTGTTGCGGTG [GGCTCCCCTCC_LTGcore_CA_RTGcore_CA] (site GGCTCCCCTCC) (LTG core: CA, RTG core: CA) — lower, 0.1
- GGCTCCCCCTGGGTTCTAACCTGTTGCGGAG [GGCTCCCCTCC_LTGcore_CC_RTGcore_CT] (site GGCTCCCCTCC) (LTG core: CC, RTG core: CT) — lower, 0
- GGCTCCCCTTGGGTTCTAACCTGTTGCGGCA [GGCTCCCCTCC_LTGcore_CT_RTGcore_TG] (site GGCTCCCCTCC) (LTG core: CT, RTG core: TG) — within 0.2 log units, 0.426
- GGCTCCCCTTGGGTTCTAACCTGTTGCGGGT [GGCTCCCCTCC_LTGcore_CT_RTGcore_AC] (site GGCTCCCCTCC) (LTG core: CT, RTG core: AC) — lower, 0.0344
- GGCTCCCTCTGGGTTCTAACCTGTTGCGGGA [GGCTCCCCTCC_LTGcore_TC_RTGcore_TC] (site GGCTCCCCTCC) (LTG core: TC, RTG core: TC) — lower, 0.238
- GGCTCCCTGTGGGTTCTAACCTGTTGCGGAG [GGCTCCCCTCC_LTGcore_TG_RTGcore_CT] (site GGCTCCCCTCC) (LTG core: TG, RTG core: CT) — lower, 0.046
- GGGAGCCACTGGGTTCTAACCTGTTGCTGAG [GGGAGCCCTCA_LTGcore_AC_RTGcore_CT] (site GGGAGCCCTCA) (LTG core: AC, RTG core: CT) — lower, 0
- GGGAGCCAGTGGGTTCTAACCTGTTGCTGAG [GGGAGCCCTCA_LTGcore_AG_RTGcore_CT] (site GGGAGCCCTCA) (LTG core: AG, RTG core: CT) — within 0.2 log units, 0.493
- GGGAGCCAGTGGGTTCTAACCTGTTGCTGCT [GGGAGCCCTCA_LTGcore_AG_RTGcore_AG] (site GGGAGCCCTCA) (LTG core: AG, RTG core: AG) — the same, 0.523
- GGGAGCCCATGGGTTCTAACCTGTTGCTGTG [GGGAGCCCTCA_LTGcore_CA_RTGcore_CA] (site GGGAGCCCTCA) (LTG core: CA, RTG core: CA) — within 0.2 log units, 0.536
- GGGAGCCCCTGGGTTCTAACCTGTTGCTGAG [GGGAGCCCTCA_LTGcore_CC_RTGcore_CT] (site GGGAGCCCTCA) (LTG core: CC, RTG core: CT) — higher, 1.11
- GGGAGCCCGTGGGTTCTAACCTGTTGCTGCG [GGGAGCCCTCA_LTGcore_CG_RTGcore_CG] (site GGGAGCCCTCA) (LTG core: CG, RTG core: CG) — lower, 0.113
- GGGAGCCCTTGGGTTCTAACCTGTTGCTGTC [GGGAGCCCTCA_LTGcore_CT_RTGcore_GA] (site GGGAGCCCTCA) (LTG core: CT, RTG core: GA) — lower, 0.0409
- GGGAGCCGATGGGTTCTAACCTGTTGCTGAG [GGGAGCCCTCA_LTGcore_GA_RTGcore_CT] (site GGGAGCCCTCA) (LTG core: GA, RTG core: CT) — lower, 0.0418
- GGGAGCCGCTGGGTTCTAACCTGTTGCTGGC [GGGAGCCCTCA_LTGcore_GC_RTGcore_GC] (site GGGAGCCCTCA) (LTG core: GC, RTG core: GC) — lower, 0.0416
- GGGAGCCTATGGGTTCTAACCTGTTGCTGAG [GGGAGCCCTCA_LTGcore_TA_RTGcore_CT] (site GGGAGCCCTCA) (LTG core: TA, RTG core: CT) — lower, 0.0839
- GGGAGCCTATGGGTTCTAACCTGTTGCTGTA [GGGAGCCCTCA_LTGcore_TA_RTGcore_TA] (site GGGAGCCCTCA) (LTG core: TA, RTG core: TA) — lower, 0.157
- GGGCGGAACTGGGTTCTAACCTGTTGCGGAG [GGGCGGACTCC_LTGcore_AC_RTGcore_CT] (site GGGCGGACTCC) (LTG core: AC, RTG core: CT) — within 0.2 log units, 0.449
- GGGCGGAAGTGGGTTCTAACCTGTTGCGGAG [GGGCGGACTCC_LTGcore_AG_RTGcore_CT] (site GGGCGGACTCC) (LTG core: AG, RTG core: CT) — lower, 0.0524
- GGGCGGAAGTGGGTTCTAACCTGTTGCGGCT [GGGCGGACTCC_LTGcore_AG_RTGcore_AG] (site GGGCGGACTCC) (LTG core: AG, RTG core: AG) — lower, 0.193
- GGGCGGACCTGGGTTCTAACCTGTTGCGGGG [GGGCGGACTCC_LTGcore_CC_RTGcore_CC] (site GGGCGGACTCC) (LTG core: CC, RTG core: CC) — lower, 0.132
- GGGCGGACTTGGGTTCTAACCTGTTGCGGAA [GGGCGGACTCC_LTGcore_CT_RTGcore_TT] (site GGGCGGACTCC) (LTG core: CT, RTG core: TT) — higher, 1.23
- GGGCGGACTTGGGTTCTAACCTGTTGCGGAT [GGGCGGACTCC_LTGcore_CT_RTGcore_AT] (site GGGCGGACTCC) (LTG core: CT, RTG core: AT) — lower, 0.0401
- GGGCGGACTTGGGTTCTAACCTGTTGCGGCA [GGGCGGACTCC_LTGcore_CT_RTGcore_TG] (site GGGCGGACTCC) (LTG core: CT, RTG core: TG) — lower, 0.146
- GGGCGGAGATGGGTTCTAACCTGTTGCGGAG [GGGCGGACTCC_LTGcore_GA_RTGcore_CT] (site GGGCGGACTCC) (LTG core: GA, RTG core: CT) — within 0.2 log units, 0.539
- GGGCGGAGCTGGGTTCTAACCTGTTGCGGAG [GGGCGGACTCC_LTGcore_GC_RTGcore_CT] (site GGGCGGACTCC) (LTG core: GC, RTG core: CT) — lower, 0.0821
- GGGCGGAGGTGGGTTCTAACCTGTTGCGGAG [GGGCGGACTCC_LTGcore_GG_RTGcore_CT] (site GGGCGGACTCC) (LTG core: GG, RTG core: CT) — lower, 0.0907
- GGGCGGAGGTGGGTTCTAACCTGTTGCGGCC [GGGCGGACTCC_LTGcore_GG_RTGcore_GG] (site GGGCGGACTCC) (LTG core: GG, RTG core: GG) — within 0.2 log units, 0.502
- GGGCGGATATGGGTTCTAACCTGTTGCGGAG [GGGCGGACTCC_LTGcore_TA_RTGcore_CT] (site GGGCGGACTCC) (LTG core: TA, RTG core: CT) — lower, 0.0954
- GGGCGGATATGGGTTCTAACCTGTTGCGGTA [GGGCGGACTCC_LTGcore_TA_RTGcore_TA] (site GGGCGGACTCC) (LTG core: TA, RTG core: TA) — lower, 0.0888
- GGGCGGATGTGGGTTCTAACCTGTTGCGGCA [GGGCGGACTCC_LTGcore_TG_RTGcore_TG] (site GGGCGGACTCC) (LTG core: TG, RTG core: TG) — lower, 0.182
- GGGCGTGACTGGGTTCTAACCTGTTGCCTAG [GGGCGTGCTAG_LTGcore_AC_RTGcore_CT] (site GGGCGTGCTAG) (LTG core: AC, RTG core: CT) — within 0.2 log units, 0.437
- GGGCGTGACTGGGTTCTAACCTGTTGCCTGT [GGGCGTGCTAG_LTGcore_AC_RTGcore_AC] (site GGGCGTGCTAG) (LTG core: AC, RTG core: AC) — lower, 0.0793
- GGGCGTGATTGGGTTCTAACCTGTTGCCTAG [GGGCGTGCTAG_LTGcore_AT_RTGcore_CT] (site GGGCGTGCTAG) (LTG core: AT, RTG core: CT) — lower, 0.308
- GGGCGTGCGTGGGTTCTAACCTGTTGCCTCG [GGGCGTGCTAG_LTGcore_CG_RTGcore_CG] (site GGGCGTGCTAG) (LTG core: CG, RTG core: CG) — lower, 0.0415
